For test [1], the target named is T1, Carbonic anhydrase 2 (Homo sapiens, UniProt P00918).
Description: Inhibition of esterase activity of human carbonic anhydrase 2 by Lineweaver-Burke plot analysis
Test [2] addresses T2, Carbonic anhydrase 1 (Homo sapiens, UniProt P00915).
Description: Inhibition of esterase activity of human carbonic anhydrase 1 by Lineweaver-Burke plot analysis
Test [3] concerns the target T2, Carbonic anhydrase 1. The test is described as follows: Inhibition of esterase activity of human carbonic anhydrase 1 by spectrophotometry. The note with it: read-out: I50.
The target of test [4] is T1, Carbonic anhydrase 2. As to the kind of experiment: Inhibition of esterase activity of human carbonic anhydrase 2 by spectrophotometry. Particulars: read-out: I50.

SMILES strings stand for the structures. pIC50, pKi: −log10 of the molar value.

T2 sequence (P00915 2-261 limits assumed): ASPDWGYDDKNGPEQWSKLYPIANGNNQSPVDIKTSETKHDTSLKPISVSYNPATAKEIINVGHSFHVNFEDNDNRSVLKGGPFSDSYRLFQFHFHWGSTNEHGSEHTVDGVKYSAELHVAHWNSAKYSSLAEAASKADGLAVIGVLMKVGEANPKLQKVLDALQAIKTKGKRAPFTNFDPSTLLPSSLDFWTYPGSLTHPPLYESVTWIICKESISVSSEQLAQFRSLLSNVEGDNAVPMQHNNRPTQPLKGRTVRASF

In general, pKi refers to the negative decadic logarithm of the Ki, by convention in mol/L. Regarding `Cc1ccc(S(=O)(=O)n2cccc2)cc1`, the figures for the negative-log Ki (pKi) in test [1] and in test [2] were 4.43 and 4.37, respectively. For the same compound, the pIC50 is 4.64 in test [3] and 4.84 in test [4].
